Consider 1 molecule from PMC11992618, “Development of cyclopeptide inhibitors specifically disrupting FXR–coactivator interaction in the intestine as a novel therapeutic strategy for MASH” (Life Metabolism, 2025).

Structures are written as SMILES.

For data set [1], the system named is Pxr, Vdr and Nr1i3 target gene expression in organoids. As to the kind of experiment: PXR, VDR and CAR downstream gene expression in organoids. It is filed as cell-based, mouse. The following applies: 24 h. The text has this: (§1) Intestinal crypts were isolated from 6- to 8-week-old C57BL/6 mice and Fxr^△IE mice as previously described with minor revision. Briefly, the abdomen of the mouse was dissected, and the small intestine was isolated with fats removed. The isolated intestine was flushed with cold PBS to remove the luminal contents. Then, the intestine was opened longitudinally and washed three times with PBS gently. The tissue was cut into small fragments (2 mm^2) and further washed three times with cold PBS gently, followed by incubation with 5 mmol/L EDTA-PBS at 4°C. After 40 min, the fragments were vortexed vigorously, and then the suspension was filtered through a […] and centrifuged at 50 g for 10 min. The crypts were counted and plated with Matrigel (1:1, 25 μL) and 500 μL IntestiCult Organoid Growth Medium with Supplements 1 and 2. The isolated crypts were cultured for 3–5 days and treated with indicated chemicals as described.
The intestine and liver were frozen in liquid nitrogen and stored at −80°C. RNA was extracted, and complementary DNA was synthesized from 1 μg total RNA. RT-qPCR was performed on a Bio-Rad CFX384 Touch detection system (Bio-Rad). […] RNA levels were analyzed by 2-^ΔΔCt, normalized to 18S ribosomal RNA and expressed as fold change relative to the control group.
Supplementary Figure S7 Selectivity of DC646. […] Data are presented as the mean ± SEM and analyzed by unpaired t-test.

Data set [2] deals with intestinal and hepatic FXR signaling. As to the kind of experiment: In vivo intestinal FXR antagonism experiment (TCA-induced). The following applies: mice, oral 20 mg/kg with TCA 400 mg/kg/day, 3 doses. Also noted: species or system mouse. As to the method: For the in vivo intestinal FXR antagonism experiment, after a 3-day treatment with an antibiotic cocktail (1 mg/mL neomycin, 1 mg/mL streptomycin, and 1 mg/mL bacitracin) in drinking water, 8- to 10-week-old male C57BL/6 J mice were orally administered with vehicle or TCA (400 mg/kg/day), TCA combined with GUDCA (50 mg/kg), or TCA combined with DC646 (20 mg/kg) once a day. The serum, liver, and intestine were collected 2 h after the third dosing.
(§2) The intestine and liver were frozen in liquid nitrogen and stored at −80°C. RNA was extracted, and complementary DNA was synthesized from 1 μg total RNA. RT-qPCR was performed on a Bio-Rad CFX384 Touch detection system (Bio-Rad). The primer sequences for RT-qPCR are shown in Supplementary Table S5. RNA levels were analyzed by 2-^ΔΔCt, normalized to 18S ribosomal RNA and expressed as fold change relative to the control group.

The nature of data set [3]: Tissue distribution (pharmacokinetic study). It is filed as in vivo, mouse. The conditions noted are these: ICR mice, single oral 20 mg/kg. Here is the method:
Male ICR mice (6–8 weeks old, 18–22 g, Shanghai Lingchang BioTech Co., Ltd., China) were used in the pharmacokinetic study. The mice were administered with a single dose of cyclopeptide DC646 in 5% DMSO and 95% hydroxypropyl methylcellulose solution (0.5% hydroxypropyl methylcellulose in deionized water in weight ratio) (volume ratio) by oral gavage (20 mg/kg). Before the test, the mice were fasted for 12 h and were fed regularly 2 h after administration. Subsequently, 50 μL of blood was collected from the portal vein at 1, 4, 8, and 24 h in an EDTA-K2 nebulization tube. Samples were centrifuged at 12,000 rpm for 2 min to separate the plasma, which was then stored at −20°C to determine the drug concentration in the blood. After sacrifice, the livers and intestines were collected, washed with ice-cold saline, and stored at −20°C before compound measurement.

Data set [4] concerns FXR signaling (Shp) in intestinal organoids. The experiment in a line: FXR target gene expression in intestinal organoids. The class given is cell-based, mouse. The conditions noted are these: DC646 50 μmol/L, GW4064 10 μmol/L, 24 h.
Excerpt: as §1
The intestine and liver were frozen in liquid nitrogen and stored at −80°C. RNA was extracted, and complementary DNA was synthesized from 1 μg total RNA. RT-qPCR was performed on a Bio-Rad CFX384 Touch detection system (Bio-Rad). The primer sequences for RT-qPCR are shown in Supplementary Table S5. RNA levels were analyzed by 2-^ΔΔCt, normalized to 18S ribosomal RNA and expressed as fold change relative to the control group. […]

The subject of data set [5] is intestinal FXR-ceramide axis and GLP-1. The experiment in a line: HFD-fed mice, ileal FXR signaling, ceramides and serum GLP-1. It is filed as in vivo, mouse. The following applies: oral 10 and 30 mg/kg. As to the method: Mice were fasted for 6 h and gavaged with a single dose of 25 mg/kg sitagliptin, followed by 2 g/kg glucose 45 min later. Blood samples were collected 15 min after glucose administration, and GLP-1 was measured using active GLP-1 kits.
as §2
For ileal lipidomics, samples were homogenized, extracted with chloroform, and prepared for analysis. Separation was achieved using an Acquity UPLC CSH C18 column, and analysis was conducted via liquid chromatography electrospray ionization tandem mass spectrometry (LC-ESI-MS/MS). Mobile phases were comprised with acetonitrile–water and isopropanol/acetonitrile solutions, both containing 10 mmol/L ammonium acetate and 0.1% formic acid.
Supplementary Figure S9 DC646 antagonizes intestinal FXR, thereby reducing ceramide production and inducing GLP-1 production. (a) Relative mRNA expression of ileal FXR signaling. (b) Ileal ceramide levels (the data are normalized and centralized). (c) Relative mRNA expression of ileal ceramide-synthesis related genes. (d) Serum GLP-1 levels. HFD-fed mice were gavaged with vehicle or 10 mg/kg or 30 mg/kg DC646. n = 8 in each group. Data are presented as the mean ± SEM and analyzed by one-way ANOVA with Dunnett’s post hoc test. ^*P < 0.05, ^**P < 0.01, and ^***P < 0.001, versus HFD + Vehicle group.

For the molecule `CC(C)C[C@@H]1NC(=O)[C@@H]2CN(CCO2)c2cccc3c2c(cn3[Si](C(C)C)(C(C)C)C(C)C)C[C@H](NS(=O)(=O)C(F)(F)F)C(=O)OCCCCNC(=O)[C@H](CC(C)C)NC(=O)[C@@H]2CN(CCO2)c2cccc3c2c(cn3[Si](C(C)C)(C(C)C)C(C)C)C[C@H](NS(=O)(=O)C(F)(F)F)C(=O)OCCCCNC1=O` [DC646, N,N'-((1^2R,1^4S,16^2R,16^4S,4R,13R,19R,28R)-13,28-diisobutyl-5,12,15,20,27,30-hexaoxo-2^1,17^1-bis(triisopropylsilyl)-2^1H,17^1H-6,21-dioxa-11,14,26,29-tetraaza-1(4,2),16(2,4)-dimorpholina-2,17(4,3)-diindolacyclotriacontaphane-4,19-diyl)bis(1,1,1-trifluoromethanesulfonamide)], the “Pxr, Vdr and Nr1i3 target gene expression” value in data set [1] is “no significant impact”. In addition, in data set [2], the “Hepatic FXR signaling” value is listed as “not hepatic FXR signaling”; the “mRNA expression levels of TCA-induced FXR target genes Shp and Fgf15 (intestine)” value was “decreased”. In data set [3] (1 h), the Concentration in liver result is reported as “BQL^$” and the Concentration in serum entry is listed as “BQL^&”. For the same molecule, in data set [3] (4 h), the Concentration in liver result is “BQL” and the Concentration in serum result was “BQL”. In data set [3] (8 h), the Concentration in liver entry is “BQL” and the Concentration in serum result is reported as “BQL”. Further, in data set [3] (24 h), the Concentration in intestine result was “BQL^$”, the Concentration in liver result was “BQL” and the Concentration in serum result is listed as “BQL”. Besides, the tissue level at time at 1 h in data set [3] (male, mouse, intestine, 1 h, read-out: Concentration in intestine) stood at 6350 ng/g. In data set [3] (male, mouse, intestine, 4 h, read-out: Concentration in intestine), the tissue level at time at 4 h is 435 ng/g. The tissue level at time at 8 h in data set [3] (male, mouse, intestine, 8 h, read-out: Concentration in intestine) came to 72 ng/g. Also, in data set [4] (Fxr^△IE organoids), the “mRNA expression of GW4064-induced FXR target gene Shp” value is “not observed”. Further, in data set [4] (WT organoids), the “mRNA expression of GW4064-induced FXR target gene Shp” value is listed as “effectively reversed”. In data set [5], the “Ceramide levels in the ileum” value is listed as “reduced” and the “Serum GLP-1 levels” value is reported as “markedly increased”. Besides, in data set [5] (dose-dependent), the “FXR signaling in the ileum (mRNA levels of Shp and Fgf15)” value was “repressed”.
